Reference: paper PMC4363291 (The Journal of investigative dermatology, 2014)
Where a name gives a salt, the structure may show the parent alone.

Assays:
Test in all cases: voltage-clamp of hemichannel currents in Xenopus oocytes
Type in all cases: cell-based
[1] = target: T1, connexin26 (Cx26) hemichannel (Homo sapiens, UniProt P29033, G45E)
[2] = target: connexin26 (Cx26) hemichannel (Homo sapiens, UniProt P29033, D50N)
[3] = target: connexin26 (Cx26) hemichannel (Homo sapiens, UniProt P29033, A40V)
[4] = target: T1, connexin26 (Cx26) hemichannel; remark: listed apart in the source
[5] = target: connexin26 (Cx26) hemichannel (Homo sapiens, UniProt P29033, D50A)

% [1] [% reduction at 30µM] | % [2] [% reduction at 30µM] | % [3] | IC50 [4] [µM] | % [5] | SMILES
59±13 | 73±11 |  |  |  | OC(c1ccccn1)c1cc(C(F)(F)F)nc2c(C(F)(F)F)cccc12 (stereo not drawn) [QU026, [2,8-Bis-trifluoromethyl-quinolin-4-yl]-pyridin-2-yl-methanol]
 | 69±15 | 50% or better suppression at 30µM | ~16 | 50% or better suppression at 30µM | O[C@@H](c1cc(C(F)(F)F)nc2c(C(F)(F)F)cccc12)[C@H]1CCCCN1 (relative stereo) [MFQ, [R*,S*]-[2,8-Bis-trifluoromethyl-quinolin-4-yl]-piperidin-2-yl-methanolhydrochloride]
